Common to all, as to assay type: cell-based
Assay [1] concerns the target Zinc finger protein GLI1/GLI2 (Mus musculus, UniProt P47806+Q0VGT2). In words: Inhibition of GLI1/GLI2 in mouse Shh Light2 cells assessed as reduction in endogenous hedgehog signalling in presence of Smo agonist SAG by luciferase reporter gene assay. In general terms: In a reporter assay the amount or activity of a reporter protein is the signal.
The target of assay [2] is T1, Protein-cysteine N-palmitoyltransferase HHAT (Homo sapiens, UniProt Q5VTY9). In words: Inhibition of HA/FLAG/His-tagged HHAT (unknown origin) expressed in 293FT cells assessed as enzyme-mediated sonic hedgehog palmitoylation incubated for 20 mins followed by [125I]iodo-palmitoyl CoA and Shh biotinylated peptide and measured after 1 hr by Scintillation proximity assay.
T1 sequence (Q5VTY9 whole entry): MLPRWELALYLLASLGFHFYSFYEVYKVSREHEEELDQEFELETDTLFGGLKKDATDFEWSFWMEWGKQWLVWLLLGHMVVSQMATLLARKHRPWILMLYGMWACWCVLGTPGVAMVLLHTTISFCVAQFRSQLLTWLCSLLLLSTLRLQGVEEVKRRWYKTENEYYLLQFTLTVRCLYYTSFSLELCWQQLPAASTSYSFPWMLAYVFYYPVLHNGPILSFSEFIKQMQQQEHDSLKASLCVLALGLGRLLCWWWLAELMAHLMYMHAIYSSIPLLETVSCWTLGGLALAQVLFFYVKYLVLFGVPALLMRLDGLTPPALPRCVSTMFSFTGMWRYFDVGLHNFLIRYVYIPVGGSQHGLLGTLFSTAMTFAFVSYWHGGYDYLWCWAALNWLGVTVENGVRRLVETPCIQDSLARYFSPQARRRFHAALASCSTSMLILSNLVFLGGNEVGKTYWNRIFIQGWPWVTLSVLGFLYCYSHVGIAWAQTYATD

Assay [3] concerns the target T1, Protein-cysteine N-palmitoyltransferase HHAT. In words: Inhibition of 3C-FLAG/His8-tagged human HHAT expressed in HEK293 cells assessed as reduction in enzyme-mediated sonic hedgehog (1 to 11 residues) palmitoylation by click-ELISA method. (In an ELISA, binding on a coated surface is turned into a signal by an enzyme label.)
Assay [4] can be described thus: Inhibition of mouse Smo A1 mutant expressed in mouse Shh Light2 cells assessed as reduction in hedgehog pathway activation incubated for 30 hrs by luminescence assay.
The target of the next assay is Sonic hedgehog protein (Mus musculus, UniProt Q62226). In words: Inhibition of sonic hedgehog signaling in mouse Shh Light2 cells after […] by Bright-Glo luciferase assay.
Sonic hedgehog protein, sequence (Q62226 25-198 limits assumed): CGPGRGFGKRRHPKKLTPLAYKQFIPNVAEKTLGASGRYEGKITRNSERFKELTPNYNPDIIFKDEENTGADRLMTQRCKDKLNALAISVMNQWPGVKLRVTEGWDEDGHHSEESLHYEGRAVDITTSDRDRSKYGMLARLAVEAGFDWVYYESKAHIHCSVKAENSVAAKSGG

pIC50: −log10 of the molar value.

The term IC50 denotes the concentration that inhibits the measured activity by half. As a reminder, the pIC50 is −log10 of the IC50, conventionally taken in molar units.

On to `c1cc(-c2sc(-c3ccncc3)c(-c3ccncc3)c2-c2ccncc2)ccn1`, for which the IC50 in assay [1] is 5 µM.
`CN(C)c1ccccc1CN1CCCN(Cc2ccccc2N(C)C)C1c1ccncc1`: in assay [1], the IC50 amounted to 5 µM.
With `CCC(C)CNCC(=O)N1CCc2sccc2C1COc1cccc(C)c1` (stereo unspecified), in assay [2], the pIC50 is 6.07.
`CCC(C)CNCC(=O)N1CCc2sccc2C1c1cccc(C)n1` (stereo unspecified): in assay [3], the pIC50 was 6.70.
Regarding `CCC(C)n1ncn(-c2ccc(N3CCN(c4ccc(OCC5COC(Cn6cncn6)(c6ccc(Cl)cc6Cl)O5)cc4)CC3)cc2)c1=O` (stereo unspecified) [ITRACONAZOLE], in assay [4], the pIC50 was 6.10.
At Sonic hedgehog protein, `O=C(C[C@@H]1C/C=C/CCC(=O)O[C@H](c2ccccc2)CNC1=O)NCc1ccc(Cl)cc1` [ROBOTNIKININ] gave a pIC50 of 5.40.

These data come from ChEMBL document CHEMBL4321784, “Inhibiting Hedgehog: An Update on Pharmacological Compounds and Targeting Strategies” (J Med Chem, 2019).
